In one test the test system is Fgf20 and Sal4. The test can be described thus: Wnt-target gene mRNA levels (qPCR) in LiCl-treated HCT116 cells. The test is classed as cell-based, human. The following applies: HCT116, LiCl 50 mM, 24 h, 10 μM. The procedure: To this end, HCT116 cells were treated for 24 h with 50 mM LiCl and increasing concentrations (10–50–100 μM) of the two compounds.
HCT116 was treated with LiCl (50 mM) and 10 μM compound 9 or 10 for 24 h. Fgf20, Sall4 (Wnt-target genes) mRNA levels were measured by qPCR and normalized to the expression of β-actin mRNA. Results are expressed as fold change relative to the control sample and represent the mean ± SD of three independent experiments, each performed in triplicate. *p < 0.05, **p < 0.01, ***p < 0.001 as determined by ANOVA.

In another test the test system is HCT116 xenograft. The test is described as follows: In vivo HCT116 xenograft tumor growth inhibition. More on the design: species or system BALB/C^nu/nu mice. How it is done:
Ten-week-old female BALB/C^nu/nu mice were inoculated subcutaneously with HCT116 cells (1 × 10^8 cells/mL) at the logarithmic growth phase. Compound 9 (100 μL, 25 mg/kg) was administered through an intraperitoneal injection every 2 days after tumorigenesis. Mice were euthanized on day 30, and tumors on the backs were collected for the measurement of tumor volume and weight.
Figure 12 Compound 9 inhibited the in vivo tumorigenicity of human colorectal cancer line HCT116. (A) Tumor tissues. (B) Top panel. The volume of tumors originating. *p < 0.05 vs. the control group; t-test; n = 4. (B) Bottom panel. The weight of tumors originating. *p < 0.05 vs. the control group; t-test; n = 4. […] Magnification 200×.
Nuclear protein Ki67 is a proliferation marker of tumor cell proliferation and is an indicator in cancer diagnosis through a biopsy.[38] CD31 is a marker of angiogenesis, along with the vascular endothelial growth factor (VEGF).[39] CD31 has been found in the angiogenetic early breast cancer tissues and is highly expressed on the surface of endothelial cells.[40]
Briefly, all 10-week-old female BALB/C^nu/nu mice (8 mice) were purchased from the Shanghai University of Traditional Chinese Medicine with Institutional Animal Care and Use Committee approval in accordance with institutional guidelines. All mice were randomly divided into […]. In the #1 group (4 mice), 1 × 10^8 cells/mL from HCT116 at the logarithmic growth phase were harvested and inoculated subcutaneously into BALB/C^nu/nu mice and intraperitoneally injected with 100 μL of compound 9 (25 mg/kg) every 2 days after tumorigenesis. In the #2 group (4 mice), 1 × 10^8 cells/mL from […] at the logarithmic growth phase were harvested and inoculated subcutaneously into BALB/C^nu/nu mice and intraperitoneally injected 100 μL of saline every 2 days after tumorigenesis. After continuous feeding for 30 days, the mice were sacrificed, and the tumors were removed. The tumors were weighed, and the volumes were calculated using the following formula: tumor volume (cm^3) = (ab^2)/2 (a: the longest axis (cm), b: the shortest axis (cm))
Briefly, fresh tissues were immersed in 4% paraformaldehyde (Sigma-Aldrich) for fixation at room temperature for 30 min. The tissues were then dehydrated in an ethanol gradient, embedded in paraffin, sectioned (thickness: 6 μm), and immersed in xylene for dewaxing. Tissue sections were blocked with an immunohistochemical blocking solution (Beyotime Biotechnology Co., Ltd., Zhejiang, China) at 37 °C for 30 min. The blocking solution was then discarded, and the sections were washed 3 times at room temperature for 5 min each with an immunohistochemical washing solution (Beyotime Biotechnology). […]

Setting [1] is: 25 mg/kg i.p. every 2 days, day 30.
Where [2] appears, read: immunofluorescence staining, 25 mg/kg i.p.

As to `O=S(=O)(Nc1ccc(-c2ccccn2)cc1)c1ccc(Br)cc1` [Compound 9, 4-Bromo-N-(4-(pyridin-2-yl)phenyl)benzenesulfonamide], the “mRNA levels of Wnt-target genes Fgf20 and Sal4” value in the test with Fgf20 and Sal4 was “strongly inhibited”. For the same compound, in the test with HCT116 xenograft (setting [1]), the “tumor volume vs control group (saline)” value is on record as “significantly smaller” and the “tumor weight vs control group (saline)” value is given as “significantly smaller”. Further, in the test on HCT116 xenograft (setting [2]), the “expression of angiogenesis marker CD31 in tumor tissues” value is “significantly lower expression” and the “expression of proliferation factor Ki67 in tumor tissues” value was “significantly lower expression”.

(Values after paper PMC10353061 (ACS Pharmacology & Translational Science, 2023).)
